Structures can show the parent of a compound that is named as a salt.
Legend:
[1] = system: Angiogenesis in CAM model; test: Neovascularization on the CAM (chick chorioallantoic membrane model of angiogenesis); assay type: in vivo, chicken; conditions: for Percent inhibition of angiogenesis in CAM model at 30 ug: unit assumed
Procedure: In vivo neovascularization was examined by the method previously described by Auerbach et al. (J. Dev. Biol. 41:391-394 (1974)). Ten-day old chicken embryos were purchased from Spafas, Inc. (Preston, Conn.) and were incubated at 37° C. with 55% relative humidity. In the dark, with the aid of a candling lamp, a small hole was punctured in the shell concealing the air sac with a hypodermic needle. A second hole was punctured in the shell on the broadside of the egg directly over an […] portion of the embryonic membrane, as observed during candling. An artificial air sac was created beneath the second hole by applying gentle vacuum to the first hole using a small rubber squeeze bulb. The vacuum caused the chorioallantoic membrane (CAM) to separate from the shell.
A window, approximately 1.0 cm^2, was cut in the shell over the dropped CAM with the use of a small crafts grinding wheel (Dremel, Division of Emerson Electric Company Racine, Wis.). The window allowed direct access to the underlying CAM.
A pro-angiogenic agent was added to induce new blood vessel branches on the CAM of 10-day old embryos. Filter disks of #1 filter paper (Whatman International, United Kingdom) were punched using a small puncher and were soaked in 3 mg/mL cortisone acetate (Sigma, St. Louis, Mo.) in a solution (95% ethanol and water). The disks were subsequently air dried under sterile conditions. The disks were then suspended in PBS (Phosphate Buffered Saline) and placed on growing CAMs. Filters treated with TP-H (TEMPOL-H) or TEMPOL and/or H2O2 or TP-H and/or bFGF or VEGF were placed on the first day of the 3-day incubation.
For inducing angiogenesis, sterile filter disks were saturated with bFGF (1 μg/ml) (Life Technologies, Gaithersburg, Md.) or other pro-angiogenesis factors and control disks were saturated with PBS without Calcium and Magnesium. […]
Using sterile forceps one filter/CAM was placed from the window. The window was sealed with Highland brand transparent tape.
After 24-48 hr, 10-25 ul of test agent was injected intravenously or added topically into the CAM membrane. Eight-Ten eggs/treatment group were used.
CAM tissue directly beneath filter disk was harvested from embryos treated 48 hours prior with compound or control. Tissues were washed three times with PBS. Sections were placed in a 35-mm petri dish (Nalge Nunc, Rochester, N.Y.) and examined under a SV6 stereomicroscope (Karl Zeiss, Thornwood, N.Y.) at 50× magnification.
CAM sections from Petri dish were examined using SV6 stereomicroscope (Karl Zeiss) at 50× magnification. Digital images of CAM sections from Petri dish were collected using a 3-CCD color video camera system (Toshiba America, New York, N.Y.). These images were analyzed using Image-Pro Plus software (Media Cybernetics, Silver Spring, Md.).
The number of branch points in blood vessels within the circular region superimposed to the area of a filter disk was counted for each section. After incubation at 37° C. with 55% relative humidity for 3 days, the CAM tissue directly beneath each filter disk was resected from control and treated CAM samples. Tissues were washed three times with PBS. Sections were placed in a 35-mm Petri dish (Nalge Nunc; Rochester, N.Y.) and were examined under a SV6 stereomicroscope (Karl Zeiss; Thornwood, N.Y.) at 50× magnification. Digital images of CAM sections adjacent to filters were collected using a 3-CCD color video camera system (Toshiba America; New York, N.Y.) and analyzed with the Image-Pro Plus software (Media Cybernetics; Silver Spring, Md.).
The number of vessel branch points contained in a circular region equal to the area of a filter disk was counted for each section. Percent inhibition data are expressed as the quotient of the experimental value minus the negative control value divided by the difference between the positive control value and the negative control value. […]

[2] = system: Human neuroblastoma SKN-SH cells, resistant to doxorubicin; test: Chemoresistance: cancer cell viability (MTT) in presence or absence of doxorubicin; assay type: cell-based; conditions: compound 50 ug/mL, MTT
Text: A method for evaluating a compound's propensity to overcome cancer cell chemoresistance is described in “Caspase Inhibition Switches Doxorubicin-Induced Apoptosis To Senescence”, Abdelhadi Rebbaa, Xin Zheng, Pauline M Chou and Bernard L Mirkin, Oncogene (2003) 22, 2805-2811. Resistant human cancer cells to doxorubicin were selected by stepwise exposure to drug concentrations ranging from 10^−9 M-10^−6 M over 3 months. They were then subjected to treatment with the doxorubicin alone or in combination with hydroxylamine compounds 1-12, 16, 20, and 21 (Table 4). The cells were incubated with the drugs for 72 hours, and cell viability was measured by the MTT assay. Additionally, molecular pathways that might be associated with increased chemo-responsiveness with these compounds were investigated. p Cancer Cell Viability Data for certain hydroxylamines in the presence or absence of Doxorubicin is listed in Table 4.
A method for evaluating a compound's propensity to overcome cancer cell chemoresistance is described in “Caspase Inhibition Switches Doxorubicin-Induced Apoptosis To Senescence”, Abdelhadi Rebbaa, Xin Zheng, Pauline M Chou and Bernard L Mirkin, Oncogene (2003) 22, 2805-2811. Human neuroblastoma SKN-SH cells (ATCC Cat. No. HTB-11) were cultured in Dulbecco's Modified Eagles Medium (DMEM; Gibco, Grand Island, N.Y.) supplemented with 10% fetal bovine serum (FBS; Sigma-Aldrich, St. Louis, Mo.) at 37° C. in a 95% Air/5% CO2 atmosphere. Resistant human cancer cells to doxorubicin were selected by stepwise exposure to drug concentrations ranging from 10^−9M-10^−6M over 3 months. They were then subjected to treatment with the doxorubicin alone or in combination with hydroxylamine compounds. The cells were incubated with the drugs for 72 hours, and cell viability was measured by the MTT assay. This consists of adding 10 μl/well of MTT (5 mg/ml solution) and incubation for 4 h at 37° C. The precipitate formed is then solubilized by addition of 100 μl of HCL 0.5 N/Isopropanol and incubation for 15 hours at 37° C. The optical density is measured at 570 nm and cell survival is estimated by comparison to untreated cells. Each point represents 4 wells data represent average ± SE. Additionally, molecular pathways that might be associated with increased chemo-responsiveness with these compounds were investigated.
Cytotoxic activity of doxorubicin and hydroxylamine analogs were quantitatively determined by a colorimetric assay utilizing 3-(4,5-dimethyl-2-thiazolyl) 2,5-diphenyl tetrazolium bromide (MTT; Sigma-Aldrich, St. Louis, Mo.). Briefly, cells were seeded at 10^4 cells/well in 96-well plates and maintained in culture for 24 hours at 37° C. in DMEM supplemented with 10% FBS. Drugs were added to designated wells and cells were incubated for […], following which MTT (10 μL of 5 mg/ml solution) was added to each 100 μl well and incubated for 4 hours at 37° C. The cells were solubilized by incubation with 100 μl of HCl 0.5N in isopropanol for 15 hours at 37° C. The optical density of this solution was measured at 570 nm and the percentage of viable cells estimated by comparison with untreated control cells.

Molecule	Percent inhibition of angiogenesis in CAM model at 30 ug ([1]; 30 ug) [%]	Mean OD (×10^−3), cancer cell viability ([2]; Dox. 10^−6 M present (+))	Mean OD (×10^−3), cancer cell viability ([2]; Dox. absent (−))	inhibition in vivo at 0.03 mg ([1]; Gallus gallus, 30 ug) [%]	inhibition in vivo at 0.3 mg ([1]; Gallus gallus, 300 ug) [%]	CAM data % Inhibition ([1]; 300 ug) [%]
1-Hydroxy-4-(4-Flurophenyl)-2,2,6,6-tetramethylpiperidine [Compound 62]	43.8	40.25 ×10^−3	184.75 ×10^−3			
CC1(C)C=C(CO)C(C)(C)N1O [Compound 8]	88	197.25 ×10^−3	392.50 ×10^−3			
CC1(C)CC(Oc2nsnc2Cl)CC(C)(C)N1O.Cl [Compound 13, 4-(4-chloro-1,2,5-thiadiazol-3-yloxyl)-1-hydroxyl-2,2,6,6-tetramethylpiperidine]	51.2					
CC1(C)CC(NC(=O)CCN2CCOCC2)CC(C)(C)N1O.Cl [Compound 26, N-(1-hydroxy-2,2,6,6-tetramethylpiperidin-4-yl)-3-morpholinopropanamide]	72	261.50 ×10^−3	1056.33 ×10^−3			
CC1(C)CC(c2nn[nH]n2)CC(C)(C)N1O.Cl [Compound 30, 1-hydroxy-2,2,6,6-tetramethyl-4-(2H-tetrazol-5-yl)piperidine]	90.4	310.00 ×10^−3	1301.25 ×10^−3			
CC1(C)CC(NC(=O)C2CC2)CC(C)(C)N1O.Cl [Compound 31, N-(1-hydroxy-2,2,6,6-tetramethylpiperidin-4-yl)cyclopropanecarboxamide]	38.8	322.25 ×10^−3	1175.25 ×10^−3			
CC1(C)CC(Oc2nsnc2N2CCOCC2)C(C)(C)N1O.Cl (centres unmarked) [Compound 32, 4-(4-(1-hydroxy-2,2,5,5-tetramethylpyrrolidin-3-yloxy)-1,2,5-thiadiazol-3-yl)morpholine]		231.50 ×10^−3	985.67 ×10^−3			
CC1(C)CC(CO)CC(C)(C)N1O.Cl [Compound 34, (1-hydroxy-2,2,6,6-tetramethylpiperidin-4-yl)methanol]		302.75 ×10^−3	1168.25 ×10^−3			
CC1(C)C=C(CC2CNCCO2)C(C)(C)N1O.Cl.Cl (centres unmarked) [Compound 36]		297.00 ×10^−3	1110.75 ×10^−3			
CC1(C)CC(=O)C(C)(C)N1O.Cl [Compound 37, 1-hydroxy-2,2,5,5-tetramethylpyrrolidin-3-one]		366.25 ×10^−3	1329.75 ×10^−3			
CC1(C)CC(NC(=O)C2CC2)C(C)(C)N1O.Cl (centres unmarked) [Compound 38, N-(1-hydroxy-2,2,5,5-tetramethylpyrrolidin-3-yl)cyclopropanecarboxamide]		378.50 ×10^−3	1202.75 ×10^−3			
COc1ccc(C2=C(c3cc(OC)c(OC)c(OC)c3)C(C)(C)N(O)C2(C)C)cc1C=O [Compound 46, 5-(2,5,-dihydro-4-(3,4,5-trimethoxyphenyl)-1-hydroxy-2,2,5,5-tetramethyl-1H-pyrrol-3-yl)-2-methoxybenzaldehyde]	45.1	32.75 ×10^−3	79.00 ×10^−3			
COc1cc(COC2CC(C)(C)N(O)C(C)(C)C2)cc(OC)c1OC.Cl [Compound 48, 1-Hydroxyl-4-(3,4,5-trimethoxybenzyloxy)-2,2,6,6-tetramethylpiperidine]		50.67 ×10^−3	1118.00 ×10^−3			
CC1(C)CC(NC(=O)CCCCC2CCSS2)CC(C)(C)N1O (centres unmarked) [Compound 49, 5-(1,2-dithialan-3-yl)-N-(1-hydroxy-2,2,6,6-tetramethylpiperidin-4-yl)pentanamide]		195.00 ×10^−3	1330.25 ×10^−3			
COc1cc(C2=CC(C)(C)N(O)C(C)(C)C2)cc(OC)c1OC.Cl [Compound 50, 1-Hydroxy-2,3,6-trihydro-4-(3,4,5-trimethoxyphenyl)-2,2,6,6-tetramethylpiperidine]	92.3	54.50 ×10^−3	1226.33 ×10^−3			
CC(C)c1nsnc1OCC1=CC(C)(C)N(O)C1(C)C [Compound 51]	43	71.00 ×10^−3	1208.25 ×10^−3			
CN1CCN(c2nsnc2OC2CC(C)(C)N(O)C(C)(C)C2)CC1 [Compound 52]	68.3	195.00 ×10^−3	1186.33 ×10^−3			
CC1(C)CC(Oc2nsnc2N2CCN(c3ccccc3)CC2)CC(C)(C)N1O.Cl.Cl [Compound 53, 4-(4-phenylpiperazin-1-yl)-3-[(2,2,6,6-tetramethyl-1-hydroxypiperidinyl)-4-oxy]-1,2,5-thiadiazole]		170.00 ×10^−3	1333.75 ×10^−3			
CC1(C)CC(O)CC(C)(C)N1O [TEMPOL-H HCl, 2,2,6,6-tetramethylpiperidine-1,4-diol, reference compound]				43 ± 10		
O=C1O[C@H]([C@@H](O)CO)C(O)=C1O [Vitamin C, reference compound]					15 ± 7	
Vitamin E [reference compound]						22 ± 6

Reference: patent US20080280890A1, “HYDROXYLAMINE COMPOUNDS AND METHODS OF THEIR USE” (priority 2007, published 2008)
